Data: paper PMC9477273 (2022)

Tested on: biosensor 566229815 (RNA, ribozyme) GGGAAACAAACAAAGCUGUCACUGGAUUUCUUGACGAAUGUGCAGGAAACGGCUCCGGUCUGAUGAGUUCGUGGCGGGACGAAACAGCAAAAAGAAAAA
Test: CleaveSeq ribozyme cleavage, deconvolution of 256-compound mixtures
Conditions: sub-mM free Mg2+ (chelated by 9 mM rNTPs); 2 μM each compound in mixtures; ligand inferred ("highly likely"); 37 °C

C=CC[n+]1c(C=C2C=CC=CN2C)sc2ccccc21
fold change of cleavage: > 2 fold
